This note sets out measurements from patent US9464135B2, “Epithelial membrane protein-2 (EMP2) and proliferative vitroretinopathy (PVR)” (THE REGENTS OF THE UNIVERSITY OF CALIFORNIA, priority 2009, dated 2016).

Common to all, as to format: cell-based, human
For experiment [1], the system named is ARPE-19 and ARPE-19/EMP2 cells. The experiment in a line: Collagen production (Sircol Collagen Assay). Conditions: 10 ng/mL TGF-β, 72 hours, serum-free medium; compared with untreated condition. The protocol: ARPE-19 and ARPE-19/EMP2 cells were seeded onto a six-well plate at a concentration of 7×10^5 cells/mL in serum-free medium in the presence or absence of 10 ng/mL […]. The medium was collected after 72 hours. Secreted collagen was measured (Sircol Collagen Assay; Accurate Chemical & Scientific, Westbury, N.Y.). The collagen assay is a colorimetric procedure. The reaction product was quantified with the microplate reader at a wavelength of 540 nm. Each experiment included at least six replicates, and at least three independent experiments were performed. A Student's t-test (unpaired, one-tail) was used. P<0.05 was judged to be statistically significant.

For experiment [2], the system named is ARPE-19 cells. The experiment in a line: Migration assay (scratch wound closure). Conditions: 50 ng/mL PDGF, 24 hours. The protocol: ARPE-19 and ARPE-19/EMP2 cells were seeded onto a 24-well plate and incubated for 3 days until cells reached confluence. The cells were washed with PBS, serum-free medium was added, and the cells were incubated overnight. A 10 μL pipette tip was used to make a scratch in the monolayer and the medium was removed and replaced with serum-free medium or serum-free medium that contained 50 ng/mL PDGF. Pictures of the wound were taken at various time points, and the percentage closure of the scratch was quantified with NIH Image J software. The area of the scratch was measured immediately after the wound was created. Over time, cells migrated into the cleared area; however, a gap was still visible after 24 hours. The gap size was measured and divided by the original scratch size, and this value was expressed as percentage closure.

The test system of another experiment is ARPE-19/EMP2 cells. The experiment can be described thus: Collagen gel contraction assay, ARPE-19/EMP2 cells. Particulars: overexpressing ARPE-19/EMP2 cells; 1 hour pretreatment; normalized to vehicle control; read-out: concentration required to achieve 50% inhibition of the gel contraction. As for the experimental part:
(§1) Collagen gel contraction assays were performed as previously reported (Morales S A et al., Exp Eye Res, 85(6):790-798 (2007)). Briefly, collagen gels were prepared by combining collagen type I (BD Biosciences) 10×DMEM, and DMEM/F12. The final concentration of the collagen type I mixture was 2.5 mg/mL. The collagen solution (500 μL) was added to each well of a 24-well plate and incubated at 37° C. in 5% CO2 for 1 hour. Cultured ARPE-19 cell with modified EMP2 levels were harvested and resuspended in serum-free DMEM/F12 at a final concentration of 5×10^5/mL. ARPE-19 cells with modified EMP2 levels were seeded onto the collagen gel at a concentration of 2.5×10^5 cells per well and the percentage of contraction was measured at 24 hours. The area of the each gel was obtained by taking a picture of the gel using image capture (Gel Doc 2000; Bio-Rad, Hercules, Calif.) and quantified with NIH Image J (developed by Wayne Rasband, National Institutes of Health, Bethesda, Md.; available at http://rsb.info.nih.gov/ij/index.html). […]
(§2) Collagen gels were prepared with collagen type I (BD Biosciences) in DMEM/F12 at a final concentration of 2.5 mg/mL. […] ARPE-19, ARPE-19/EMP2, and ARPE-19/EMP2 siRNA cells were seeded onto the collagen gels at a concentration of 2.5×10^5 cells per well and the percentage of contraction was measured at specific time intervals. […]

The next experiment deals with ARPE-19/EMP2 siRNA cells. The experiment in a line: Collagen gel contraction assay, ARPE-19/EMP2 siRNA cells. Particulars: 1 hour pretreatment, normalized to vehicle control, read-out: concentration required to achieve 50% inhibition of the gel contraction. The protocol:
as §1, §2

The test system of experiment [3] is ARPE-19 cells. The experiment in a line: Collagen gel contraction assay, ARPE-19 cells. Particulars: 1 hour pretreatment, normalized to vehicle control, read-out: concentration required to achieve 50% inhibition of the gel contraction. The protocol: EMP2 diabody was recombinantly constructed using a phage library to select for reactivity against a human EMP2 peptide. […] Toxicity, adhesion, and migration were assessed respectively through flow cytometry using Annexin V, binding to collagen type 1, and a wound healing assay. Collagen gel contraction was assessed using an in vitro assay.
as §1

As for TGF-β, the collagen production result in experiment [1] is recorded as “increased collagen production”. On to PDGF, for which the wound closure result in the experiment with ARPE-19 cells [2] is listed as “stimulated wound closure”.

For the compound `CC(C)(C)n1nc(-c2ccc(Cl)cc2)c2c(N)ncnc21` [PP2], the IC50 with ARPE-19/EMP2 cells is 5000 nM; in the experiment on ARPE-19/EMP2 siRNA cells, < 1000 nM; in the experiment with ARPE-19 cells [3] it was 2500 nM.
